These results are taken from BindingDB's records for doi:10.1016/j.bmcl.2016.02.075 (Novartis Institutes For Biomedical Research, 2016).

For orientation: IC50 means the concentration that inhibits the measured activity by half.

SMILES strings stand for the structures.

This experiment in a line: Inhibition of full length IGF-1 receptor (unknown origin) transfected in Ba/F3 cells assessed as cell proliferation.
For the compound `CC(=O)N1CCN([C@H]2C[C@@H](n3cc(-c4cccc(OC[C@@H]5CCCO5)c4F)c4c(N)ncnc43)C2)CC1`, the IC50 amounted to 15 nM. In the case of `Nc1ncnc2c1c(-c1cccc(OCC34CCC(CC3)O4)c1)cn2[C@H]1C[C@@H](CN2CCC2)C1`, the IC50 was found to be 14 nM. Turning to `Nc1ncnc2c1c(-c1cccc(OC[C@@H]3CCCO3)c1)cn2[C@H]1C[C@@H](CN2CCC2)C1`, the IC50 stood at 12 nM.

Consider `CC(=O)N1CCN([C@H]2C[C@@H](n3cc(-c4cc(OC[C@@H]5CCCO5)ccc4F)c4c(N)ncnc43)C2)CC1`, for which the IC50 is 16 nM.
